These results are taken from patent publication US10414811B2, “Protease-resistant lipidated GLP-1 analogs” (MEDIMMUNE LIMITED, priority 2015, dated 2019).

Read-outs that look alike come from different tables or passages of the source.

Holding throughout (format): cell-based
Assay [1] deals with T1, human glucose-dependent insulinotropic peptide receptor (GIPR) (Homo sapiens, UniProt P48546).
T1 construct: expressed in transfected cells
T1 sequence (P48546 22-466): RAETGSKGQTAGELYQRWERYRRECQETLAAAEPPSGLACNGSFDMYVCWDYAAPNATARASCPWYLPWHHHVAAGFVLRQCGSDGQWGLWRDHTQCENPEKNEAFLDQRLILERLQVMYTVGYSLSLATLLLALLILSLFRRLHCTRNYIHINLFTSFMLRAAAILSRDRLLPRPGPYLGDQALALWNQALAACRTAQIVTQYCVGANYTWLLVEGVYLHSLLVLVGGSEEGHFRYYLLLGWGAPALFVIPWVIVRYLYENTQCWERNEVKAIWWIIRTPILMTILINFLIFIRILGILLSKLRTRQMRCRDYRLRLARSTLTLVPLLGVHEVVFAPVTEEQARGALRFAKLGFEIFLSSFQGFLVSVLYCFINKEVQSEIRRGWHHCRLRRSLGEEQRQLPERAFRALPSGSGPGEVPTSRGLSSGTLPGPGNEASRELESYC
Put plainly: cAMP assay, human GIPR cells. The following applies: cAMP assay. The method, boiled down:
(§1)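 Peptide-stimulated cAMP measured by two-step HTRF after a 30 min room-temperature incubation with receptor-expressing cells (hGLP-1R, hGIPR at 1×10^5 cells/ml; hGCGR at 2×10^5 cells/ml). Duplicate dilutions; EC50 from 4-parameter logistic fit of % Delta F.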
A general note: Changes in cAMP serve as a functional read-out for many G protein-coupled receptors.

Assay [2] deals with T2, human glucagon receptor (GCGR) (Homo sapiens, UniProt P47871).
T2 construct: expressed in transfected cells
Put plainly: cAMP assay, human GCGR cells. As to conditions: cAMP assay. In short, it runs like this: as §1

In assay [3] the target is T3, human GLP-1 receptor (GLP-1R) (Homo sapiens, UniProt P43220).
T3 construct: expressed in transfected cells
Put plainly: cAMP assay, human GLP-1R cells. In short, it runs like this:
as §1

Setting [4] is: first determination (n1), read-out: Primary assay EC50 GIP-R (n1).
The mark [5] stands for this setting: second determination (n2), read-out: Primary assay EC50 GIP-R (n2).
Setting [6] is: first determination (n1), read-out: Primary assay EC50 Gluc-R (n1).
Setting [7] is: second determination (n2), read-out: Primary assay EC50 Gluc-R (n2).
[8] abbreviates: cAMP assay, first determination (n1), read-out: Primary assay EC50 GLP-1R n1.
The mark [9] stands for this setting: cAMP assay, second determination (n2), read-out: Primary assay EC50 GLP-1R n2.
[10] abbreviates: mean of n1 and n2, read-out: Mean pM GLP-1R.

T3 sequence (P43220 24-463): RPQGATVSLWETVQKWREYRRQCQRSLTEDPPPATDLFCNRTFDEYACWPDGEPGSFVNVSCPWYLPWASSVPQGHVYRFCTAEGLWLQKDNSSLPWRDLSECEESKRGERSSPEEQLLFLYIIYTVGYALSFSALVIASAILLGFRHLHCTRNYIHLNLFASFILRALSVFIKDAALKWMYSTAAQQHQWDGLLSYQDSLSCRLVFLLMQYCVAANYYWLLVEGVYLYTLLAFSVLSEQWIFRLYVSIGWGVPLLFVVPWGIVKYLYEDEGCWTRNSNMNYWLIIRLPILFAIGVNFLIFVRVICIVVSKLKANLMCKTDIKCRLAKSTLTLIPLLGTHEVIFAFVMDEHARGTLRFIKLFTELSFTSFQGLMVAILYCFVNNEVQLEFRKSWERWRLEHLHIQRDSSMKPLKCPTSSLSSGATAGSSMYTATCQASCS
T2 sequence (P47871 26-477): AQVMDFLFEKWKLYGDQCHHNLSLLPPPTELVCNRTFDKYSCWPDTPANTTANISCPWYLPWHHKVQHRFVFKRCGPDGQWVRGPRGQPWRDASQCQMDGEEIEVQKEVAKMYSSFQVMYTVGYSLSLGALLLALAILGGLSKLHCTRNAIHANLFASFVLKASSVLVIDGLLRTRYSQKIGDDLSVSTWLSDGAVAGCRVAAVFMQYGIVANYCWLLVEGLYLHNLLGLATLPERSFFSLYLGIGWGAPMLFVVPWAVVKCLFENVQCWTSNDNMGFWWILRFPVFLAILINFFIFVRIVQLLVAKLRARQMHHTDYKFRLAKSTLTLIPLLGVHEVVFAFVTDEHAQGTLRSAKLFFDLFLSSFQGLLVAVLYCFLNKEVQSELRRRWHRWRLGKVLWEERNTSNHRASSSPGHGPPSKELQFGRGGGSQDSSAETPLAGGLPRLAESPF

As to `CC[C@H](C)[C@H](NC(=O)[C@](C)(Cc1ccccc1)NC(=O)[C@H](CCC(=O)O)NC(=O)[C@H](CCCCNC(=O)CCCCCNC(=O)CCCCCNC(=O)CCCCCNC(=O)CCCCCCCCCCCCCCCCC(=O)O)NC(=O)[C@H](C)NC(=O)[C@H](C)NC(=O)[C@H](CCC(=O)O)NC(=O)CNC(=O)[C@H](CCC(=O)O)NC(=O)[C@H](CC(C)C)NC(=O)[C@](C)(Cc1ccccc1)NC(=O)[C@H](CO)NC(=O)[C@](C)(CO)NC(=O)[C@@H](NC(=O)[C@H](CC(=O)O)NC(=O)[C@H](CO)NC(=O)[C@@H](NC(=O)[C@](C)(Cc1ccccc1)NC(=O)[C@H](CO)NC(=O)CNC(=O)[C@H](CCC(=O)O)NC(=O)C(C)(C)NC(=O)[C@@H](N)Cc1c[nH]cn1)[C@@H](C)O)C(C)C)C(=O)N[C@@H](C)C(=O)N[C@@](C)(Cc1ccccc1)C(=O)N[C@H](C(=O)N[C@H](C(=O)N[C@@](C)(CCCCN)C(=O)NCC(=O)NCC(N)=O)C(C)C)C(C)C` [compound 160], the EC50 in assay [1] (setting [4]) is no less than 26 nM; in assay [1] (setting [5]), no less than 26 nM; in assay [2] (setting [6]), no less than 26 nM; in assay [2] (setting [7]), no less than 26 nM; in assay [3] (setting [8]), 390 pM; in assay [3] (setting [9]) it was 320 pM. The EC50 in assay [3] (setting [10]) came to 351 pM.
As to `CC[C@H](C)[C@H](NC(=O)[C@](C)(Cc1ccccc1)NC(=O)[C@H](CCC(=O)O)NC(=O)[C@H](CCCCNC(=O)COCCOCCNC(=O)CCCCCCCCCCCCCCCCC(=O)O)NC(=O)[C@H](C)NC(=O)[C@H](C)NC(=O)[C@H](CCC(=O)O)NC(=O)CNC(=O)[C@H](CCC(=O)O)NC(=O)[C@H](CC(C)C)NC(=O)[C@](C)(Cc1ccccc1)NC(=O)[C@H](CO)NC(=O)[C@](C)(CO)NC(=O)[C@@H](NC(=O)[C@H](CC(=O)O)NC(=O)[C@H](CO)NC(=O)[C@@H](NC(=O)[C@](C)(Cc1ccccc1)NC(=O)[C@H](CO)NC(=O)CNC(=O)[C@H](CCC(=O)O)NC(=O)C(C)(C)NC(=O)[C@@H](N)Cc1c[nH]cn1)[C@@H](C)O)C(C)C)C(=O)N[C@@H](C)C(=O)N[C@@](C)(Cc1ccccc1)C(=O)N[C@H](C(=O)N[C@H](C(=O)N[C@@](C)(CCCCN)C(=O)NCC(=O)NCC(N)=O)C(C)C)C(C)C` [compound 161], the EC50 in assay [1] (setting [4]) was no less than 27 nM; in assay [1] (setting [5]) it was no less than 27 nM; in assay [2] (setting [6]), no less than 27 nM; in assay [2] (setting [7]) it was no less than 27 nM; in assay [3] (setting [8]) it was 160 pM; in assay [3] (setting [9]), 62 pM. In assay [3] (setting [10]), the EC50 came out at 112 pM.
For `CC[C@H](C)[C@H](NC(=O)[C@](C)(Cc1ccccc1)NC(=O)[C@H](CCC(=O)O)NC(=O)[C@H](CCCCNC(=O)COCCOCCNC(=O)COCCOCCNC(=O)COCCOCCNC(=O)CCCCCCCCCCCCCCCCC(=O)O)NC(=O)[C@H](C)NC(=O)[C@H](C)NC(=O)[C@H](CCC(=O)O)NC(=O)CNC(=O)[C@H](CCC(=O)O)NC(=O)[C@H](CC(C)C)NC(=O)[C@](C)(Cc1ccccc1)NC(=O)[C@H](CO)NC(=O)[C@](C)(CO)NC(=O)[C@@H](NC(=O)[C@H](CC(=O)O)NC(=O)[C@H](CO)NC(=O)[C@@H](NC(=O)[C@](C)(Cc1ccccc1)NC(=O)[C@H](CO)NC(=O)CNC(=O)[C@H](CCC(=O)O)NC(=O)C(C)(C)NC(=O)[C@@H](N)Cc1c[nH]cn1)[C@@H](C)O)C(C)C)C(=O)N[C@@H](C)C(=O)N[C@@](C)(Cc1ccccc1)C(=O)N[C@H](C(=O)N[C@H](C(=O)N[C@@](C)(CCCCN)C(=O)NCC(=O)NCC(N)=O)C(C)C)C(C)C` [compound 163], the EC50 in assay [1] (setting [4]) was no less than 25 nM; in assay [1] (setting [5]) it was no less than 25 nM; in assay [2] (setting [6]) it was no less than 25 nM; in assay [2] (setting [7]), no less than 25 nM; in assay [3] (setting [8]) it was 63 pM; in assay [3] (setting [9]) it was 49 pM. In addition, in assay [3] (setting [10]), the EC50 stood at 56 pM.
Regarding `CCCCCCCCCCCC(=O)N[C@@H](CCC(=O)NCCCC[C@H](NC(=O)[C@@H](NC(=O)[C@@H](NC(=O)[C@](C)(Cc1ccccc1)NC(=O)[C@H](C)NC(=O)[C@@H](NC(=O)[C@](C)(Cc1ccccc1)NC(=O)[C@H](CCC(=O)O)NC(=O)[C@](C)(CCCCN)NC(=O)[C@H](C)NC(=O)[C@H](C)NC(=O)[C@H](CCC(=O)O)NC(=O)CNC(=O)[C@H](CCC(=O)O)NC(=O)[C@H](CC(C)C)NC(=O)[C@](C)(Cc1ccccc1)NC(=O)[C@H](CO)NC(=O)[C@](C)(CO)NC(=O)[C@@H](NC(=O)[C@H](CC(=O)O)NC(=O)[C@H](CO)NC(=O)[C@@H](NC(=O)[C@](C)(Cc1ccccc1)NC(=O)[C@H](CO)NC(=O)CNC(=O)[C@H](CCC(=O)O)NC(=O)C(C)(C)NC(=O)[C@@H](N)Cc1c[nH]cn1)[C@@H](C)O)C(C)C)[C@@H](C)CC)C(C)C)C(C)C)C(=O)NCC(=O)NCC(N)=O)C(=O)O` [compound 164], the EC50 in assay [1] (setting [4]) is no less than 28 nM; in assay [1] (setting [5]), no less than 28 nM; in assay [2] (setting [6]), no less than 28 nM; in assay [2] (setting [7]), no less than 28 nM; in assay [3] (setting [8]), 22 pM; in assay [3] (setting [9]), 7.8 pM. Also, the EC50 in assay [3] (setting [10]) turned out to be 14.6 pM.
`CCCCCCCCCCCC(=O)N[C@@H](CCC(=O)N[C@@H](CCC(=O)NCCCC[C@H](NC(=O)[C@@H](NC(=O)[C@@H](NC(=O)[C@](C)(Cc1ccccc1)NC(=O)[C@H](C)NC(=O)[C@@H](NC(=O)[C@](C)(Cc1ccccc1)NC(=O)[C@H](CCC(=O)O)NC(=O)[C@](C)(CCCCN)NC(=O)[C@H](C)NC(=O)[C@H](C)NC(=O)[C@H](CCC(=O)O)NC(=O)CNC(=O)[C@H](CCC(=O)O)NC(=O)[C@H](CC(C)C)NC(=O)[C@](C)(Cc1ccccc1)NC(=O)[C@H](CO)NC(=O)[C@](C)(CO)NC(=O)[C@@H](NC(=O)[C@H](CC(=O)O)NC(=O)[C@H](CO)NC(=O)[C@@H](NC(=O)[C@](C)(Cc1ccccc1)NC(=O)[C@H](CO)NC(=O)CNC(=O)[C@H](CCC(=O)O)NC(=O)C(C)(C)NC(=O)[C@@H](N)Cc1c[nH]cn1)[C@@H](C)O)C(C)C)[C@@H](C)CC)C(C)C)C(C)C)C(=O)NCC(=O)NCC(N)=O)C(=O)O)C(=O)O` [compound 165]: the EC50 in assay [1] (setting [4]) is no less than 27 nM; in assay [1] (setting [5]), no less than 27 nM; in assay [2] (setting [6]), no less than 27 nM; in assay [2] (setting [7]) it was no less than 27 nM; in assay [3] (setting [8]), 14 pM; in assay [3] (setting [9]), 6 pM. Further, in assay [3] (setting [10]), the EC50 stood at 10.2 pM.
Take `CCCCCCCCCCCC(=O)NCCCCCC(=O)NCCCC[C@H](NC(=O)[C@@H](NC(=O)[C@@H](NC(=O)[C@](C)(Cc1ccccc1)NC(=O)[C@H](C)NC(=O)[C@@H](NC(=O)[C@](C)(Cc1ccccc1)NC(=O)[C@H](CCC(=O)O)NC(=O)[C@](C)(CCCCN)NC(=O)[C@H](C)NC(=O)[C@H](C)NC(=O)[C@H](CCC(=O)O)NC(=O)CNC(=O)[C@H](CCC(=O)O)NC(=O)[C@H](CC(C)C)NC(=O)[C@](C)(Cc1ccccc1)NC(=O)[C@H](CO)NC(=O)[C@](C)(CO)NC(=O)[C@@H](NC(=O)[C@H](CC(=O)O)NC(=O)[C@H](CO)NC(=O)[C@@H](NC(=O)[C@](C)(Cc1ccccc1)NC(=O)[C@H](CO)NC(=O)CNC(=O)[C@H](CCC(=O)O)NC(=O)C(C)(C)NC(=O)[C@@H](N)Cc1c[nH]cn1)[C@@H](C)O)C(C)C)[C@@H](C)CC)C(C)C)C(C)C)C(=O)NCC(=O)NCC(N)=O` [compound 167]: the EC50 in assay [1] (setting [4]) is no less than 29 nM; in assay [1] (setting [5]), no less than 29 nM; in assay [2] (setting [6]), no less than 29 nM; in assay [2] (setting [7]), no less than 29 nM; in assay [3] (setting [8]), 13 pM; in assay [3] (setting [9]) it was 6.9 pM. The EC50 in assay [3] (setting [10]) was 10 pM.
Regarding `CCCCCCCCCCCCCCCCCC(=O)N[C@@H](CCC(=O)NCCCC[C@H](NC(=O)[C@@H](NC(=O)[C@@H](NC(=O)[C@](C)(Cc1ccccc1)NC(=O)[C@H](C)NC(=O)[C@@H](NC(=O)[C@](C)(Cc1ccccc1)NC(=O)[C@H](CCC(=O)O)NC(=O)[C@](C)(CCCCN)NC(=O)[C@H](C)NC(=O)[C@H](C)NC(=O)[C@H](CCC(=O)O)NC(=O)CNC(=O)[C@H](CCC(=O)O)NC(=O)[C@H](CC(C)C)NC(=O)[C@](C)(Cc1ccccc1)NC(=O)[C@H](CO)NC(=O)[C@](C)(CO)NC(=O)[C@@H](NC(=O)[C@H](CC(=O)O)NC(=O)[C@H](CO)NC(=O)[C@@H](NC(=O)[C@](C)(Cc1ccccc1)NC(=O)[C@H](CO)NC(=O)CNC(=O)[C@H](CCC(=O)O)NC(=O)C(C)(C)NC(=O)[C@@H](N)Cc1c[nH]cn1)[C@@H](C)O)C(C)C)[C@@H](C)CC)C(C)C)C(C)C)C(=O)NCC(=O)NCC(N)=O)C(=O)O` [compound 182], the EC50 in assay [1] (setting [4]) was no less than 28 nM; in assay [1] (setting [5]), no less than 28 nM; in assay [2] (setting [6]), no less than 28 nM; in assay [2] (setting [7]), no less than 28 nM; in assay [3] (setting [8]), 130 pM; in assay [3] (setting [9]), 52 pM. Besides, the EC50 in assay [3] (setting [10]) is 89.9 pM.
